Experimental data: patent US5597824A, “Analogs of oxetanyl purines and pyrimidines” (Abbott Laboratories, priority 1992, dated 1997)
In brackets after ≈: the same amount, converted by molar mass.

How the values were obtained:
[1] = tested on: Herpes simplex type 1 (HSV-1) strain E-377; experiment: CPE-inhibition assay, HSV-1 strain E-377 in Vero cells; format: cell-based, Herpes simplex virus type 1; settings: HSV-1 (E-377), minimum cytotoxic concentration / ID50
Procedure: (§1) The challenge viruses were propagated and assayed in cells that were pregrown as monolayer cultures in plastic tissue culture flasks and 96-well plates, using cell culture media appropriate for the host cell cultures. The following viruses and host cell cultures were employed:
(§2) green monkey kidney (Vero)
(§3) On the day of use, a weighed sample of each compound to be evaluated was dissolved and diluted in serial 10^0.5 dilutions in the culture medium appropriate for each virus-host cell system.
Mammalian cells were pregrown as monolayers in wells of COSTAR 96-well tissue culture plates using suitable cell culture media. Stock viruses were pretitered according to the method of Reed and Muench (Amer. J. Hyg. 27:493-497, 1938) and diluted in cell culture medium to yield 32 CCID50 (cell culture infectious dose, 50%) units per 0.1 ml. Antiviral assays were designed to test seven concentrations of each compound, from cytotoxic to noncytotoxic levels, in triplicate against each of the challenge viruses in microtiter plate wells containing suitable cell monolayers. To each of the replicate cell cultures were added 0.1 ml of the test drug solution and 0.1 ml of virus suspension. Cell controls containing medium alone, virus controls containing medium and virus, and drug cytotoxicity controls containing medium and each drug concentration were run simultaneously with the test samples assayed in each experiment. […]
(§4) Antiviral activity was determined by calculating the degree of inhibition of virus-induced CPE in drug-treated, virus-infected cell cultures by means of a virus rating (VR). The VR is a standard weighted measurement of antiviral activity taking into account both the degree of CPE inhibition and drug cytotoxicity, and is determined by a modification of the method of Ehrlich et al. (Ann. N.Y. Acad. Sci. 130: 5-16, 1965) as described below. […]
(§5) The VR was calculated as 0.1 of the sum of the numerical differences between the recorded CPE grade of each test well and that of the corresponding virus control in the culture plate. […]

[2] = tested on: Herpes simplex type 2 (HSV-2) strain MS; experiment: CPE-inhibition assay, HSV-2 strain MS in Vero cells; format: cell-based, Herpes simplex virus type 2; settings: HSV-2 (MS), minimum cytotoxic concentration / ID50
Procedure: as §1, §2, §3
Mammalian cells were pregrown as monolayers in wells of COSTAR 96-well tissue culture plates using suitable cell culture media. […]
as §4, §5

[3] = tested on: Human Cytomegalovirus (HCMV) strain AD169; experiment: Virus yield reduction assay, HCMV in MRC5 cells; format: cell-based
Procedure: Human diploid embryonic lung (MRC5) cells were grown in 35 mm wells of 6-well tissue culture plates. Subconfluent cell monolayers were rinsed with phosphate-buffered saline (PBS) and were exposed to 0.5 ml/well of HCMV (strain AD169) suspension for 1.5 hours at 37° C. The virus suspension was diluted in MEM+2% fetal bovine serum (FBS) to yield a multipicity of infection (MOI) of approximately 0.1 plaque forming units (PFU)/cell. Following the virus adsorption period, the inocula were removed and infected cell layers were rinsed with PBS. Aliquiots (2.0 ml) of each test drug concentration (dissolved in MEM supplemented with 2% FBS) were dispensed into triplicate cell cultures: two virus-infected cultures and one uninfected cytotoxicity control culture (exposed to medium without virus for 1.5 hours). Untreated virus-infected control cultutres and untreated, uninfected cell control cutures were fed with medium alone. The culture plates were incubated at 37° C. in a humidified atmosphere of 2% CO2 in air. All cell culture fluids were replaced with fresh drug and medium 48 hours postinfection (p.i.). On Day 6 p.i., the cell layers were examined microscopically for cytopathogenic effect (CPE) and drug cytotoxicity. The test and virus control cultures were then harvested by subjecting the cell layers to one cycle of freeze-thawing. The cellular material was scraped into the ambient medium and the contents from replicate cultures were pooled, dispensed into cryotubes and stored at -135° C. The harvested test and virus control samples were thawed and the infectious virus yield was determined by plaque assay in MRC5 cells grown in 12-well cluster plates. Inhibiton of HCMV replication by each test compound was determined by comparing the progeny virus yields in the drug-treated cultures with the progeny virus yeild in the untreated, virus-infected control cultures.

[4] = tested on: Vero cells; experiment: Cell viability (MTT) of uninfected test-compound control wells; format: cell-based, African green monkey; settings: cell viability reduced by 25%
Procedure: Vero cells were pregrown as monolayers in wells of COSTAR 96-well tisue culture plates using suitable cell culture media. Stock viruses were pretitered according to the method of Reed and Muench (Amer. J. Hyg. 27 493 (1938)) and diluted in cell culture medium to yield 32 CCID50 (cell culture infectious dose, 50%) units per 0.1 mL. Antiviral assays were designed to test six concentrations of each compound, from cytotoxic to noncytotoxic levels, in triplicate against each of the challenge viruses in microtiter plate wells containing cell monolayers. To each of the replicate cell cultures were added 0.1 mL of the test-compound solution and 0.1 mL of virus suspension. Two compounds were evaluated per plate. The following controls were included:
(3) Test-compound cytotoxicity controls containing uninfected, test-compound treated cells;
The covered plates were incubated at 37° C. in a humidified atmosphere containing 2% CO2. When cytopathogenic effect (CPE) in untreated virus control wells reached 100%, 20 μL of 3-(4,5-dimethyl-thiazol-2-yl)-2,5-diphenyl tetrazolium bromide (MTT) (dissolved in PBS at 5 mg/mL) was pipetted into each of the plate wells. The plates were incubated at 37° C. for six hours; then 40 μL of 30% SDS (in 0.02N HCl) was added to each well. After overnight incubation at 37° C. the blue color or the MTT formazan was measured spectrophotometrically at 570 nm. The optical density (OD) value of each culture is a function of the amount of formazan produced which is proportional to the number of viable cells. A computer program was utilized to calculate the percent (CPE) reciprocal of % CPE reduction) of the virus-infected wells and % cell viability of the uninfected test-compound control wells.
The IC50 value is the minimum test-compound concentration (μg/mL) that inhibited CPE by 50%, calculated by using a regression analysis program for semilog curve fitting. The TC25 value is the minimum test-compound concentration (μg/mL) that reduced cell viability by 25%.

SMILES: Cc1cn([C@@H]2O[C@H](CO)[C@H]2CO)c(=O)[nH]c1=O [Example 21, 1-([2'R,3'R,4'S]-3',4'-Bis(hydroxmethyl)-2'-oxetanyl)5-methyluracil]
- TI (Therapeutic Index) [1]: 1552
- TI (Therapeutic Index) [2]: > 7.2

SMILES: Nc1ccn([C@@H]2O[C@H](CO)[C@H]2CO)c(=O)n1 [Example 22, 1-([2'R,3'R,4'S]-3',4'-Bis(hydroxmethyl)-2'-oxetanyl)cytosine]
- HCMV yield ([3]; 0.032 μg/ml): 3.8 log10 PFU/ml
- HCMV yield ([3]; 0.1 μg/ml): 3.1 log10 PFU/ml
- HCMV yield ([3]; 0.32 μg/ml): 2.6 log10 PFU/ml
- HCMV yield ([3]; 1.0 μg/ml): 0.4 log10 PFU/ml
- HCMV yield ([3]; 3.2 μg/ml): < 0.1 log10 PFU/ml
- HCMV yield ([3]; 10 μg/ml): < 0.1 log10 PFU/ml
- TI (Therapeutic Index) [1]: 13.1
- TI (Therapeutic Index) [2]: 9.7

SMILES: O=c1ccn([C@@H]2O[C@H](CO)[C@H]2CO)c(=O)[nH]1 [Example 23, 1-([2'R,3'R,4'S]-3',4'-Bis(hydroxmethyl)-2'-oxetanyl)uracil]
- HCMV yield ([3]; 3.2 μg/ml): 4.7 log10 PFU/ml
- HCMV yield ([3]; 10 μg/ml): 4.5 log10 PFU/ml
- HCMV yield ([3]; 32 μg/ml): 4.4 log10 PFU/ml
- HCMV yield ([3]; 100 μg/ml): 4.0 log10 PFU/ml
- HCMV yield ([3]; 320 μg/ml): 3.0 log10 PFU/ml
- TI (Therapeutic Index) [1]: 1.0

SMILES: O=c1[nH]c(=O)n([C@@H]2O[C@H](CO)[C@H]2CO)cc1I [Example 42, 1-([2'R, 3'R, 4'S]-3', 4'-Bis(hydroxmethyl)-2'-oxetanyl)-5-iodouracil]
- TC25 ([4]; HSV-1 (E-377) line): > 354 µg/mL
- TC25 ([4]; HSV-2 (MS) line): > 354 µg/mL

SMILES: O=c1[nH]c(=O)n([C@@H]2O[C@H](CO)[C@H]2CO)cc1Br [Example 43, 1-([2'R, 3'R, 4'S]-3', 4'-Bis(hydroxmethyl)-2'-oxetanyl)-5-bromouracil]
- TC25 ([4]; HSV-1 (E-377) line): 18.4 µg/mL (≈ 59.9 µM)
- TC25 ([4]; HSV-2 (MS) line): > 307 µg/mL

SMILES: O=c1[nH]c(=O)n([C@@H]2O[C@H](CO)[C@H]2CO)cc1C=CBr [Example 44, 1-([2'R, 3'R, 4'S]-3', 4'-Bis(hydroxmethyl)-2'-oxetanyl)-5-(2-bromo-1-vinyl)uracil]
- TC25 ([4]; HSV-1 (E-377) line): 289 µg/mL (≈ 868 µM)

SMILES: O=c1[nH]c(=O)n([C@@H]2O[C@H](CO)[C@H]2CO)cc1C=CI [Example 49, 1([2'R,3'R,4'S]-3',4'-n-Bis(hydroxmethyl)-2'-oxetanyl)-5-(2-iodo-1-vinyl)uracil]
- TC25 ([4]; HSV-1 (E-377) line): > 380 µg/mL

SMILES: O=c1[nH]c(=O)n([C@@H]2O[C@H](CO)[C@H]2CO)cc1C=CCl [Example 50, 1-([2'R,3'R,4'S]-3',4'-Bis(hydroxymethyl)-2'-oxetanyl)-5-(2-chloro-1-vinyl)uracil]
- TC25 ([4]; HSV-1 (E-377) line): > 289 µg/mL

SMILES: C=Cc1cn([C@@H]2O[C@H](CO)[C@H]2CO)c(=O)[nH]c1=O [Example 61, 1-([2'R, 3'R, 4'S]-3',4'-Bis(hydroxmethyl)-2'-oxetanyl)-5-vinyluracil]
- TC25 ([4]; HSV-2 (MS) line): ≥ 254 µg/mL
